Results taken from ChEMBL document CHEMBL4339250 (J Nat Prod, 2019).
pEC50, pIC50: −log10 of the molar value. Values belong to the compound of their own block, whether it stands above or below them. The source made the active and inactive calls. The rule behind the calls is not given here.

Columns and labels:
[1] = target: T1, Peroxisome proliferator-activated receptor alpha (Homo sapiens) (UniProt Q07869); assay: Agonist activity at human PPARalpha expressed in African green monkey COS7 cells assessed as increase in receptor transcriptional activity at 10 uM by luciferase reporter gene assay relative to WY-14643; format: cell-based
T1 sequence (whole entry): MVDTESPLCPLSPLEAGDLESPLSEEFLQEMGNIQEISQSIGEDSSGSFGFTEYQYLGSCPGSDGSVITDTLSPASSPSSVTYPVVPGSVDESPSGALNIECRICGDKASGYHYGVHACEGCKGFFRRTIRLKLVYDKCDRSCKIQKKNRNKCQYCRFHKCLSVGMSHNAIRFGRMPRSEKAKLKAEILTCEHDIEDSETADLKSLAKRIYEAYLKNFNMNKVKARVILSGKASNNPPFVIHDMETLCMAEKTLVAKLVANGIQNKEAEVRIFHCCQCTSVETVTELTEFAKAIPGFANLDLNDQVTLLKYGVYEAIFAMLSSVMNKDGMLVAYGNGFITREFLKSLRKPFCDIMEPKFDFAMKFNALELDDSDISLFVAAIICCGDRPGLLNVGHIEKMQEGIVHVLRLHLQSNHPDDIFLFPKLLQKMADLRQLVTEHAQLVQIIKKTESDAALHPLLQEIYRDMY

[2] = target: T2, Peroxisome proliferator-activated receptor alpha (Homo sapiens, UniProt Q07869); assay: Agonist activity at human PPARalpha expressed in African green monkey COS7 cells assessed as increase in receptor transcriptional activity by luciferase reporter gene assay relative to WY-14643; format: cell-based; conditions: for pEC50: read-out: EC50
T2 sequence (Q07869 whole entry): T1 sequence (whole entry)

[3] = target: T3, Peroxisome proliferator-activated receptor gamma (Homo sapiens) (UniProt P37231); conditions: at 10 µM
T3 sequence (whole entry): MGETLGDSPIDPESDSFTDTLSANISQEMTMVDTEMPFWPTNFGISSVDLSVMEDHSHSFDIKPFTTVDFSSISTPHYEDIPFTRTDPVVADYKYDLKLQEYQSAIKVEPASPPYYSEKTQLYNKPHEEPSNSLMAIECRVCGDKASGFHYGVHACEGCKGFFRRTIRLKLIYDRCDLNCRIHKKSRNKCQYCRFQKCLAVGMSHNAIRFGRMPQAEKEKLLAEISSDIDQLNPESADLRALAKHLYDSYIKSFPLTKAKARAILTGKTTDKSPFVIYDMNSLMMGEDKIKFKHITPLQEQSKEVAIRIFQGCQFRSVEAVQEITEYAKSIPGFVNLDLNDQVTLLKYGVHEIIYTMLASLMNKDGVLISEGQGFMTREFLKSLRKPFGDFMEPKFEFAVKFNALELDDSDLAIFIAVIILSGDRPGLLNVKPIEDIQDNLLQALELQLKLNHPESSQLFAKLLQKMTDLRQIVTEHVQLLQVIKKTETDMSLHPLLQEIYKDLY

[4] = system: HUVEC; assay: Cytotoxicity against HUVEC assessed as induction of cell damage at 30 uM incubated for 24 hrs by MTT assay; format: cell-based; conditions: human
[5] = target: T4, Peroxisome proliferator-activated receptor gamma (Homo sapiens, UniProt P37231); assay: Agonist activity at human PPARgamma expressed in African green monkey COS7 cells assessed as increase in receptor transcriptional activity by luciferase reporter gene assay relative to rosiglitazone; format: cell-based; conditions: for pEC50: read-out: EC50
T4 sequence (P37231 whole entry): T3 sequence (whole entry)

[6] = system: Neutrophil; assay: Cytotoxicity against human neutrophils assessed as induction of cell damage at 30 uM incubated for 24 hrs by MTT assay; format: cell-based
[7] = system: HUVEC; assay: (§1) Anti-inflammatory activity in HUVEC assessed as reduction in TNFalpha-stimulated neutrophil-HUVEC interactions by measuring decrease in mononuclear leukocyte to endothelial cells at 10 uM treated for 20 hrs post 48 hrs after control siRNA transfection followed by TNFalpha stimulation for 24 hrs using freshly isolated mononuclear leukocytes perfused over endothelial monolayers for 5 mins by phase contrast microscopy; format: functional, cell-based; conditions: Homo sapiens
[8] = target: RXR alpha/PPAR gamma (Homo sapiens) (UniProt P37231+P19793); assay: Induction of RXRalpha/PPARgamma interaction in HUVEC at 10 uM pretreated for 20 hrs before TNFalpha stimulation by immunoprecipitation and Western blotting analysis; format: cell-based
[9] = system: HUVEC; assay: Induction of apoptosis in HUVEC at 30 uM incubated for 24 hrs by annexin V-FITC and propidium iodide staining based flow cytometry; format: cell-based; conditions: human
[10] = Cytotoxicity against HUVEC assessed as cell viability at 30 uM incubated for 24 hrs by MTT assay; format: cell-based; conditions: human, HUVEC cells; read-out: Activity
[11] = system: HUVEC; assay: as §1, with “PPARgamma” for “control”; format: functional, cell-based; conditions: Homo sapiens
[12] = system: HUVEC; assay: as §1, with “PPARalpha” for “control”; format: functional, cell-based; conditions: Homo sapiens
[13] = system: HUVEC; assay: as §1, with “pretreated” for “treated”, “before” for “post 48 hrs after control siRNA transfection followed by”, “mins in presence of PPARgamma antagonist GW9662” for “mins”; format: functional, cell-based; conditions: Homo sapiens
[14] = system: HUVEC; assay: as §1, with “pretreated” for “treated”, “before” for “post 48 hrs after control siRNA transfection followed by”, “mins in presence of PPARalpha antagonist GW6471” for “mins”; format: functional, cell-based; conditions: Homo sapiens
[15] = system: Neutrophil; assay: Induction of apoptosis in human neutrophils at 30 uM incubated for 24 hrs by annexin V-FITC and propidium iodide staining based flow cytometry; format: cell-based
[16] = system: HUVEC; assay: Cytotoxicity against HUVEC assessed as reduction in cell viability at 30 uM incubated for 24 hrs by MTT assay; format: cell-based; conditions: human
[17] = system: HUVEC; assay: (§2) Anti-inflammatory activity in HUVEC assessed as reduction in TNFalpha-stimulated neutrophil-HUVEC interactions by measuring decrease in neutrophil adhesion to endothelial cells at 1 uM pretreated for 20 hrs before TNFalpha stimulation for 24 hrs using freshly isolated neutrophils perfused over endothelial monolayers for 5 mins by phase contrast microscopy; format: functional, cell-based; conditions: Homo sapiens
[18] = system: Neutrophil; assay: Cytotoxicity against human neutrophils assessed as reduction in cell viability at 30 uM incubated for 24 hrs by MTT assay; format: cell-based
[19] = system: HUVEC; assay: as §2, with “mononuclear leukocyte” for “neutrophil adhesion”, “cells” for “cells at 1 uM”, “mononuclear leukocytes” for “neutrophils”; format: functional, cell-based; conditions: Homo sapiens
[20] = Cytotoxicity against human neutrophils assessed as cell viability at 30 uM incubated for 24 hrs by MTT assay; format: cell-based, Neutrophil; conditions: read-out: Activity
[21] = system: HUVEC; assay: as §1, with “RXRalpha” for “control”; format: functional, cell-based; conditions: Homo sapiens
[22] = system: HUVEC; assay: as §2, with “mononuclear leukocyte” for “neutrophil adhesion”, “mononuclear leukocytes” for “neutrophils”; format: functional, cell-based; conditions: Homo sapiens
[23] = system: HUVEC; assay: as §1, with “1” for “10”; format: functional, cell-based; conditions: Homo sapiens
[24] = system: HUVEC; assay: as §1, with “1” for “10”, “28” for “20”, “PPARalpha” for “control”; format: functional, cell-based; conditions: Homo sapiens

SMILES: Cc1cc(SCc2sc(-c3ccc(C(F)(F)F)cc3)nc2C)ccc1OCC(=O)O
Efficacy [1]: inactive

SMILES: C/C(=C\CC[C@]1(C)CCc2cc(OCc3ccccc3)cc(C)c2O1)CC/C=C(\C)C(=O)OCc1ccccc1
Efficacy [1]: 28%

SMILES: CC1=C(/C=C/C(C)=C\C=C\C(C)=C\C(=O)O)C(C)(C)CCC1
Efficacy [1]: inactive

SMILES: C/C(=C\CC[C@]1(C)CCc2cc(OCC(N)=O)cc(C)c2O1)CC/C=C(\C)C(=O)OCc1ccccc1
Efficacy [1]: 18%

SMILES: Cc1cccc(Nc2cc(Cl)nc(SCC(=O)O)n2)c1C [PIRINIXIC ACID]
Activity [17]: inactive
EC50 [5]: Not Active

SMILES: CN(CCOc1ccc(CC2SC(=O)NC2=O)cc1)c1ccccn1 (stereo unspecified) [ROSIGLITAZONE]
Efficacy [1]: inactive
EC50 [2]: Not Active
Activity [16]: Toxic
Activity [17]: inactive
Activity [23]: Active
Activity [18]: Toxic
inhibition [19]: Dose-dependent effect
Activity [24]: Active
Activity [22]: Active

Now from value to compound, other results behind:

Efficacy [1]: 82%
pEC50 [2]: 6.00
Efficacy [3]: 55%
pEC50 [5]: 6.00
SMILES: COc1cc(C)c2c(c1)CC[C@@](C)(CC/C=C(\C)CC/C=C(\C)C(=O)O)O2
Activity [4]: Toxic
Activity [6]: Toxic

Efficacy [1]: 14%
SMILES: COC(=O)COC(=O)/C(C)=C/CC/C(C)=C/CC[C@]1(C)CCc2cc(OC(=O)c3ccccc3)cc(C)c2O1

Efficacy [1]: 27%
Efficacy [3]: 35%
SMILES: COC(=O)/C(C)=C/CC/C(C)=C/CC[C@]1(C)CCc2cc(O)cc(C)c2O1

Efficacy [1]: 49%
Efficacy [3]: 86%
pEC50 [5]: 6.00
SMILES: CCCOC(=O)/C(C)=C/CC/C(C)=C/CC[C@]1(C)CCc2cc(O)cc(C)c2O1

Efficacy [1]: 39%
Efficacy [3]: 24%
SMILES: COC(=O)COC(=O)/C(C)=C/CC/C(C)=C/CC[C@]1(C)CCc2cc(OC)cc(C)c2O1

Activity [8]: Active
Efficacy [1]: 107%
pEC50 [2]: 6.74
Efficacy [3]: 95%
pEC50 [5]: 7.08
SMILES: C/C(=C\CC[C@]1(C)CCc2cc(O)cc(C)c2O1)CC/C=C(\C)C(=O)O
Activity [7]: Active
Activity [9]: Non-Toxic
viability at 24 h, 30 µM [10]: 73.4%
Activity [11]: inactive
Activity [12]: Active
Activity [13]: inactive
Activity [14]: Active
Activity [15]: Non-Toxic
Activity [16]: Non-Toxic
Activity [17]: inactive
Activity [18]: Non-Toxic
pIC50 [19]: 5.31
viability at 24 h, 30 µM [20]: 89.2%
Activity [21]: inactive
Activity [22]: Active

Efficacy [1]: 191%
pEC50 [2]: 6.00
Efficacy [3]: 88%
pEC50 [5]: 5.77
SMILES: CCCOc1cc(C)c2c(c1)CC[C@@](C)(CC/C=C(\C)CC/C=C(\C)C(=O)O)O2

Efficacy [1]: 76%
pEC50 [2]: 5.79
Efficacy [3]: 37%
SMILES: COC(=O)C(OC(=O)/C(C)=C/CC/C(C)=C/CC[C@]1(C)CCc2cc(OC)cc(C)c2O1)C(=O)OC
